Measurements: publication PMC7044277 (Nature Communications, 2020)
Where “and” joins values, the source holds several entries; their conditions need not be identical. Equal entries are not always repeated.

Key:
Type in all cases: cell-based
DRD2 S1935.42G = target: T1, DRD2 S1935.42G (Homo sapiens, UniProt P14416, S193G); test: Gαi/o-mediated cAMP inhibition (GloSensor), mutant; conditions: DRD2 Ser5.42Gly; G-protein assay
T1 construct: expressed in transfected cells; host or cells: HEK293T (ATCC CRL-11268)

DRD2 S1945.43G = target: T2, DRD2 S1945.43G (Homo sapiens, UniProt P14416, S194G); test: Gαi/o-mediated cAMP inhibition (GloSensor), mutant; conditions: DRD2 Ser5.43Gly; G-protein assay
T2 construct: expressed in transfected cells; host or cells: HEK293T (ATCC CRL-11268)

DRD2 S1975.46G = target: T3, DRD2 S1975.46G (Homo sapiens, UniProt P14416, S197G); test: Gαi/o-mediated cAMP inhibition (GloSensor), mutant; conditions: DRD2 Ser197^5.46Gly; G-protein assay
T3 construct: expressed in transfected cells; host or cells: HEK293T (ATCC CRL-11268)

DRD1 = DRD1 (Homo sapiens, UniProt P21728); test: β-arrestin2 recruitment (Tango); conditions: agonist mode
5HT1D = 5HT1D (Homo sapiens, UniProt P28221); test: β-arrestin2 recruitment (Tango); conditions: agonist activity only at high concentrations
5HT2C = target: T4, 5HT2C (Homo sapiens, UniProt P28335); test: β-arrestin2 recruitment (Tango); conditions: Fig_S10m; for β-arrestin2 recruitment response in presence of serotonin (replicate values): +10μM serotonin; for β-arrestin2 recruitment response (dose-response source data, replicate values): drug alone
T4 sequence (P28335 33-458): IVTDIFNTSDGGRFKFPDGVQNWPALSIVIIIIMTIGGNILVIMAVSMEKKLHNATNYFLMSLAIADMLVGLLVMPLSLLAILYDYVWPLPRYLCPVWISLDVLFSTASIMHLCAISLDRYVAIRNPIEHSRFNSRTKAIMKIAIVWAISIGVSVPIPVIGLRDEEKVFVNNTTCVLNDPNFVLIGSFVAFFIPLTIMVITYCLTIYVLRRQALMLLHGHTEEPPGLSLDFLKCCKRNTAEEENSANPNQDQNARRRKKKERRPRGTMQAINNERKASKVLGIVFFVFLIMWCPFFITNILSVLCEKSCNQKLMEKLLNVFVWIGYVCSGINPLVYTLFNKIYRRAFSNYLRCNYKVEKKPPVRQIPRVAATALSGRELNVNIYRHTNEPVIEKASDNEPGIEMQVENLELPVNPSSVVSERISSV

Chain of DRD1 (P21728 whole entry): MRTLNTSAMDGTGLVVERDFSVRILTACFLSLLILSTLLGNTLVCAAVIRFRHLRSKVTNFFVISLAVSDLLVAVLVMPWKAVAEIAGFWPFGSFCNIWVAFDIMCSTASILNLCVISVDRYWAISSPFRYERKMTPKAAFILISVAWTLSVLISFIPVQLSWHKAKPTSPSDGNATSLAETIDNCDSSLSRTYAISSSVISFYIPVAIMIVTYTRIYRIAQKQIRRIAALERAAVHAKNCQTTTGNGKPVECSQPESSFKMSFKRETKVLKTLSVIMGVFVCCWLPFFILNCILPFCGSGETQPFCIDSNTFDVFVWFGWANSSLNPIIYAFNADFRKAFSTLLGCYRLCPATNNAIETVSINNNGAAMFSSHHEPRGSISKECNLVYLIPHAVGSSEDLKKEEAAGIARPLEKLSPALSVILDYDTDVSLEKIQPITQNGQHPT
T2 sequence (P14416 whole entry S194G): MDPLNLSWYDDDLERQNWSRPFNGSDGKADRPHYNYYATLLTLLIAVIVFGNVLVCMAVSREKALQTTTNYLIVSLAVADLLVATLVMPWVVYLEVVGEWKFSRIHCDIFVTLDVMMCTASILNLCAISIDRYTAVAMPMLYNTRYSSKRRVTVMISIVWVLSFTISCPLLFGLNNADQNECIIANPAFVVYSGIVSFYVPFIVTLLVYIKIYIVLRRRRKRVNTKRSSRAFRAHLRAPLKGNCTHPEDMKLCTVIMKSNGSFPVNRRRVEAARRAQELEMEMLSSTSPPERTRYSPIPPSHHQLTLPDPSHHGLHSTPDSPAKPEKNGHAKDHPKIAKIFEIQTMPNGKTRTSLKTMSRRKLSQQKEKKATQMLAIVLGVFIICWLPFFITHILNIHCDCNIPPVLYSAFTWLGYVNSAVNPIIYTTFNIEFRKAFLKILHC
Chain of 5HT1D (P28221 whole entry): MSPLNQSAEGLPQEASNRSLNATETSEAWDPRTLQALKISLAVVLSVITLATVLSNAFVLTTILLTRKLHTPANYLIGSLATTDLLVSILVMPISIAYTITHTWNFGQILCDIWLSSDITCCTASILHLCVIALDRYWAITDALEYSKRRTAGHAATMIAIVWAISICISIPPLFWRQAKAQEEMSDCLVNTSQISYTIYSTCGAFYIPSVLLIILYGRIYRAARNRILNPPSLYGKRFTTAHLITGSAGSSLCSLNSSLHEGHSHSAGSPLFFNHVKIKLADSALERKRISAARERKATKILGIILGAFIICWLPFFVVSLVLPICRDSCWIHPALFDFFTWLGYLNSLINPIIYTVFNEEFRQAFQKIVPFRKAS
T1 sequence (P14416 whole entry S193G): as the sequence (P14416 whole entry S194G) above, with S193G, G194S counted along it
T3 sequence (P14416 whole entry S197G): as the sequence (P14416 whole entry S194G) above, with G194S, S197G counted along it

Compound: CCOc1cccc2cc([C@H](C)NCC3(O)CCCCC3)oc12 [O4SE6]
- agonism after serine to glycine substitution (DRD2 S1935.42G): impaired
- agonism after serine to glycine substitution (DRD2 S1945.43G): impaired
- agonism after serine to glycine substitution (DRD2 S1975.46G): impaired
- Fig_S10d concentration-response source data, compound alone (replicates) (DRD1; Log[Drug] -6.52): 1.081
- Fig_S10d concentration-response source data, compound alone (replicates) (DRD1; Log[Drug] -7): 1.077 and 2.449 and 0.7206 and 0.01093 and 0.2616 and 0.5709 and 0.4663 and -0.4785 and 0.5459
- Fig_S10d concentration-response source data, compound alone (replicates) (DRD1; Log[Drug] -7.52): 0.3818 and 0.7249 and 2.612 and 1.107 and 0.1296 and 1.638 and 0.2406 and 0.3904 and 0.4963
- Fig_S10d concentration-response source data, compound alone (replicates) (DRD1; Log[Drug] -8): 4.337 and 0.3775 and 1.059 and 0.9723 and 0.606 and 0.3811 and 0.01404 and 0.5796 and 0.0103
- Fig_S10d concentration-response source data, compound alone (replicates) (DRD1; Log[Drug] -8.52): 1.411 and 0.7206 and 3.809 and 2.0766 and 0.164 and 0.2319 and -0.01873 and 0.09082 and 0.3165
- Fig_S10d concentration-response source data, compound alone (replicates) (DRD1; Log[Drug] -9): -0.3131 and 1.5871 and 3.29 and -0.05311 and -0.07654 and 0.3577 and 0.09363 and 0.0515 and 0.4204
- Fig_S10d concentration-response source data, compound alone (replicates) (DRD1; Log[Drug] -9.52): 3.9849 and 1.227 and 1.561 and 0.082 and -0.1093 and 0.5131 and -0.06273 and 0.7238 and 1.497
- Fig_S10d concentration-response source data, compound alone (replicates) (DRD1; Log[Drug] -10): 3.981 and 1.729 and 5.684 and -0.04842 and 0.2671 and 0.3249 and 0.426 and 0.4251 and 0.5346
- Fig_S10d concentration-response source data, compound alone (replicates) (DRD1; Log[Drug] -10.52): 0.712 and 1.746 and 4.122 and 0.3608 and 0.264 and 0.2335 and 1.101 and -0.02996 and 0.2809
- Fig_S10d concentration-response source data, compound alone (replicates) (DRD1; Log[Drug] -11): 2.269 and 1.742 and 3.972 and 0.1742 and 0.3296 and 0.01406 and 0.6835 and 1.257 and -0.2856
- Fig_S10d concentration-response source data, compound alone (replicates) (DRD1; Log[Drug] -11.52): 0.3861 and 1.068 and 2.775 and -0.2327 and -0.01484 and 0.1414 and 0.7734 and -0.7734 and -0.2032
- Fig_S10d concentration-response source data, compound alone (replicates) (DRD1; Log[Drug] -12): 1.754 and 0.5705 and -0.2917 and 0.1156 and 0.2702 and 0.1429 and -0.6489 and -0.1919 and -0.08146
- concentration at which the receptor is activated (5HT1D): over 1 μM
- β-arrestin2 recruitment response in presence of serotonin (replicate values) (5HT2C; Log[Drug] -5): 45.7461 and 51.1482 and 53.4841 and 61.6893 and 54.4017 and 57.753 and 67.2866 and 83.7427 and 85.1445
- β-arrestin2 recruitment response (dose-response source data, replicate values) (5HT2C; Log[Drug] -5): -3.262 and -0.5555 and 0.5642 and 1.204 and -0.4664 and 1.061 and -2.805 and 1.039 and 3.566
- β-arrestin2 recruitment response in presence of serotonin (replicate values) (5HT2C; Log[Drug] -5.52): 76.8132 and 54.1781 and 71.9421 and 67.2323 and 56.1903 and 49.3738 and 64.9568 and 69.9468 and 71.0617
- β-arrestin2 recruitment response (dose-response source data, replicate values) (5HT2C; Log[Drug] -5.52): -3.477 and -1.313 and -1.505 and -0.3021 and 0.7731 and -0.1754 and 1.049 and -1.9165 and -0.666
- β-arrestin2 recruitment response in presence of serotonin (replicate values) (5HT2C; Log[Drug] -6): 57.6708 and 60.6404 and 63.9932 and 75.4508 and 75.7722 and 57.215 and 86.3739 and 65.9717 and 77.801
- β-arrestin2 recruitment response (dose-response source data, replicate values) (5HT2C; Log[Drug] -6): 0.1892 and -1.167 and -2.9638 and 0.5481 and 0.639 and 4.5826 and 1.774 and -1.813 and -1.0517
- β-arrestin2 recruitment response in presence of serotonin (replicate values) (5HT2C; Log[Drug] -6.52): 49.4392 and 65.2785 and 58.4136 and 69.39 and 55.9424 and 71.2915 and 76.7849 and 85.9817 and 94.9705
- β-arrestin2 recruitment response (dose-response source data, replicate values) (5HT2C; Log[Drug] -6.52): 3.199 and -0.222 and 0.3914 and 1.323 and 0.05601 and 0.9925 and -1.994 and 1.303 and -2.122
- β-arrestin2 recruitment response in presence of serotonin (replicate values) (5HT2C; Log[Drug] -7): 67.4184 and 56.2577 and 61.082 and 74.1195 and 66.0313 and 86.1338 and 77.8195 and 67.5788 and 79.0331
- β-arrestin2 recruitment response (dose-response source data, replicate values) (5HT2C; Log[Drug] -7): -0.4648 and -1.599 and 4.168 and 0.2351 and 1.745 and 2.334 and 14.5501 and 3.184 and 0.1487
- β-arrestin2 recruitment response in presence of serotonin (replicate values) (5HT2C; Log[Drug] -7.52): 57.9508 and 62.7389 and 68.9932 and 62.9857 and 78.9582 and 61.3863 and 70.1719 and 83.8296 and 68.1225
- β-arrestin2 recruitment response (dose-response source data, replicate values) (5HT2C; Log[Drug] -7.52): -1.179 and -0.8967 and -0.04778 and 2.819 and 2.117 and -0.4591 and 1.974 and -0.9095 and 6.65
